Reference: US20210196731A1, “COMPOSITIONS AND METHODS FOR TREATING OCULAR INFLAMMATION AND OCULAR SCARRING” (priority 2018, published 2021)

Experiments:
Type in all cases: cell-based, human
αSMA = test: Western blot of HTCF protein lysate, αSMA
Experimental: (§1) Cells were lysed in lysis buffer (PhosphoSafe Extraction Reagent, Novagen) containing a protease inhibitor cocktail (P2714, Sigma-Aldrich). Crude protein lysate was quantified using a Pierce BCA protein assay kit (ThermoFisher, Mississauga, ON) and 10 ug from each sample was resolved using a Novex WedgeWell 4-20% tris-glycine gel (Invitrogen). Using an iBlot Gel Transfer Device (IB1001, Invitrogen), the separated protein was transferred to a nitrocellulose membrane (1B301001, iBlot Transfer Stack, Invitrogen) which was then blocked with 5% (w/v) bovine serum albumin (Sigma-Aldrich) in Tris buffered saline (TBST) for 1 hour at room temperature. The membranes were incubated overnight at 4° C. with primary antibody diluted in TBST containing 5% BSA (w/vol). […] Visualization was accomplished by applying WesternBright Quantum chemiluminescent reagent (Advansta, Inc.), with GAPDH used as a protein loading control. Imaging and relative densiometric quantification was accomplished using a ChemiDoc MP System (Bio-Rad Laboratories, Inc.) connected to Image Lab (Version 6, Bio-Rad Laboratories, Inc.).

SMAD2/3 = test: Western blot of HTCF protein lysate, SMAD2/3; conditions: ASA 500 or 1000 μg/ml, APHS 12 μg/ml, 48 hrs
Experimental: as §1

HTCFs = test: Cytotoxicity assay, in situ fluorescence-based LIVE/DEAD (fluorescein diacetate/propidium iodide)
Experimental: To assess the relative cellular viability between different experimental conditions, an in situ fluorescence-based LIVE/DEAD assay was used. This is a well reported method for estimating the cytotoxicity of an intervention. In brief, two florescent dyes, fluorescein diacetate and propidium iodide, are added to the culture media surrounding the collagen constructs. Fluorescein diacetate is converted into a […] fluorescent molecule by esterases within living cells. Propidium iodide (red) cannot pass through a viable cell's membrane, however it can penetrate disordered areas of dead cell membranes and then intercalates with the nuclear DNA. After a 5 min incubation with the staining solution, collagen constructs were washed with PBS and immediately imaged on a laser-scanning confocal microscope (A1R HD Nikon Instruments Inc., Tokyo, Japan). Ten random frames were taken with the 20× objective per tissue section, with three tissue sections imaged per patient cell line and treatment group. The laser intensity settings were kept consistent between samples to facilitate consistent comparison between replicates.
Using ImageJ, blue signals were counted within every frame and counted as living cells. The same was done for red signals, and these were counted as dead cells. The ratio of living (blue) to total (blue+red) cells was recorded.

[1] = ASA 500 or 1000 μg/ml, APHS 12 μg/ml, with or without gentamicin 250 or 500 μg/ml, 48 hrs (FIG. 17B)

SMILES	AHGF-induced expression of αSMA (αSMA; [1])	AHGF-induced expression of SMAD2/3 (SMAD2/3)	relative proportion of living to total cells (HTCFs; AHGFs, APHS 24 μg/ml, alone or with gentamicin 750 μg/ml)	AHGF-induced expression of αSMA (αSMA; ASA 100, 400, 1600 μg/ml, 48 hrs (FIG. 16))	relative proportion of living to total cells (HTCFs; AHGFs, ASA 1500 μg/ml, with or without gentamicin 750 μg/ml, mitomycin C 0.2 mg/ml for 1, 2 or 4 minutes)	relative proportion of living to total cells (HTCFs; Collagen Contraction Assay III conditions, ASA 1000 or 1500 μg/ml, with or without gentamicin, four days)
CCCCC#CCSc1ccccc1OC(C)=O [APHS, o-(acetoxyphenyl)hept-2-ynyl sulfide]	significantly reduced	significantly reduced	unchanged relative to the AHGFs control group	–	–	–
CC(=O)Oc1ccccc1C(=O)O [ASA, acetylsalicylic acid]	significantly reduced	significantly reduced	–	significantly impaired the AHGF-induced expression of αSMA	unchanged relative to vehicle control	unchanged relative to vehicle control
